In this test the target is EGFR (UniProt P00533).

pIC50: −log10 of the molar value. Some results are limits rather than exact numbers.

EGFR, sequence (P00533 whole entry, looked up): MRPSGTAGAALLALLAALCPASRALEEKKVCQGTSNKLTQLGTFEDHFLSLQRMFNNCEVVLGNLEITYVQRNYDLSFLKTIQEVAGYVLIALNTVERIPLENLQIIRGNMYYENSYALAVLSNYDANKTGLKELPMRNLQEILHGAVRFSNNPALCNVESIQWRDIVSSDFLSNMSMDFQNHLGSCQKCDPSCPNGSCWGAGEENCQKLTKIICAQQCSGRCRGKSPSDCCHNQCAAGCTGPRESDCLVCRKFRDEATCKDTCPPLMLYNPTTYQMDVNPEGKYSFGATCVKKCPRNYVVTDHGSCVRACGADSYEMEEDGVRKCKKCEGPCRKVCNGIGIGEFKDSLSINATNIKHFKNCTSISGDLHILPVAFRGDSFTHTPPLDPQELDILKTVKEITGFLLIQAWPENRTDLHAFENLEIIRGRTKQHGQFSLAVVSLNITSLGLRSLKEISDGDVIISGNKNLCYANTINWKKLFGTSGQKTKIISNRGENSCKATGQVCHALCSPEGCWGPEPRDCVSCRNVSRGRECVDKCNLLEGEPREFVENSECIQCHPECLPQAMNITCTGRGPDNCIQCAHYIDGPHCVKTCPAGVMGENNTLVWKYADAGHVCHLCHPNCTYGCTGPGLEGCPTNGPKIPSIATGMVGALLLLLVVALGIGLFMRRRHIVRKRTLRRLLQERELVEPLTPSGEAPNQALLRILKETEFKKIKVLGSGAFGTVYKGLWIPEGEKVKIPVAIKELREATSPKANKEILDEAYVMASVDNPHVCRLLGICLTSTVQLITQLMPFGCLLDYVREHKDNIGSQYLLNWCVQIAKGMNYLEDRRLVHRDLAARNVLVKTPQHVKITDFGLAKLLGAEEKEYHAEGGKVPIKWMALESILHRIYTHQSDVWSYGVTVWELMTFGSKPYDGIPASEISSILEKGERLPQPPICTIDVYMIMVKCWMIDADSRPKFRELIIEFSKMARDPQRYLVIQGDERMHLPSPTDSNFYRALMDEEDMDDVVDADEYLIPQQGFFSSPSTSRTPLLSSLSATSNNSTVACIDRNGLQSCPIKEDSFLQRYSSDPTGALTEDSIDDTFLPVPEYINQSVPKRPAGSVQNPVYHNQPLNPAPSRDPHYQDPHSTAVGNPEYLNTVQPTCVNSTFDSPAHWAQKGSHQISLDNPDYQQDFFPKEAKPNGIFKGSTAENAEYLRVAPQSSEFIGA

With `Cc1ccc2ncnc(Nc3cccc(C(F)(F)F)c3)c2c1`, the pIC50 was 6.07.

`COc1cc2nc(Cl)nc(Nc3ccc(C)cc3)c2cc1OC` showed a pIC50 of 5.31.

Take `Clc1ccccc1Nc1ncnc2ccccc12`: the pIC50 is below 4.30.

With `Cc1ccc2ncnc(Nc3ccccc3O)c2c1`, the negative-log IC50 (pIC50) is below 4.30.

`COc1cc2nc(Cl)nc(Nc3cccc(Cl)c3)c2cc1OC` gave a negative-log IC50 (pIC50) of 4.70.

In turn, `Cc1ccc2ncnc(Nc3ccc(Br)cc3)c2c1` gave a pIC50 of 4.85.

For `COc1ccc(Nc2ncnc3ccc(C)cc23)cc1`, the pIC50 is 5.00.

`COc1cc2ncnc(Nc3ccccc3)c2cc1OC` had a pIC50 below 4.30.

With `COc1cc2nc(Nc3ccc(C)cc3)nc(Nc3ccc(C)cc3)c2cc1OC`, the negative-log IC50 (pIC50) is 5.47.

As for `COc1cc2ncnc(Nc3cc(Cl)cc(Cl)c3)c2cc1OC`, the negative logarithm of the IC50 (pIC50) is 7.62.

As to `Cc1ccc2ncnc(Nc3ccc(C)c(C)c3)c2c1`, the pIC50 is below 4.35.

`COc1cc2nc(N3CCN(C)CC3)nc(Nc3cccc(Cl)c3)c2cc1OC` had a pIC50 of 5.47.

In the case of `Cc1ccc2ncnc(Nc3cccc(C(=O)O)c3)c2c1`, the negative-log IC50 (pIC50) was below 4.30.

`Cc1ccc(Nc2ncnc3ccc(C)cc23)cc1` gave a negative logarithm of the IC50 (pIC50) below 4.30.

As to `Cc1ccc2ncnc(Nc3ccc(O)cc3)c2c1`, the pIC50 is below 4.30.

Take `Cc1ccc2ncnc(Nc3cccc(C(N)=O)c3)c2c1`: the negative-log IC50 (pIC50) was below 4.30.

`Cc1ccc2ncnc(Nc3ccc4c(c3)OCO4)c2c1` had a pIC50 of 4.68.

Molecule `COc1cc2c(Nc3cccc(Cl)c3)ncnc2c(OC)c1OC` showed a negative logarithm of the IC50 (pIC50) below 4.30.

`COc1cccc(Nc2ncnc3cc(OC)c(OC)cc23)c1`: the negative-log IC50 (pIC50) is 6.00.

Regarding `Cc1ccc2ncnc(Nc3ccccc3)c2c1`, the negative-log IC50 (pIC50) was below 4.30.

For `Cc1ccc2ncnc(Nc3ccccc3Cl)c2c1`, the negative-log IC50 (pIC50) is below 4.30.

In turn, `COc1cc2ncnc(Nc3cccc(I)c3)c2cc1OC` gave a negative logarithm of the IC50 (pIC50) of 8.77.

`Cc1ccc2ncnc(Nc3ccc(C#N)cc3)c2c1` gave a negative logarithm of the IC50 (pIC50) below 4.30.

Molecule `Clc1cccc(Nc2ncnc3ccccc23)c1` gave a pIC50 of 6.69.

`Cc1ccc2ncnc(Nc3ccccc3C)c2c1` gave a negative logarithm of the IC50 (pIC50) below 4.30.

Regarding `Cc1ccc2ncnc(Nc3cccc(Br)c3)c2c1`, the negative logarithm of the IC50 (pIC50) is 6.48.

In turn, `Cc1cccc2c(Nc3cccc(Cl)c3)ncnc12` gave a pIC50 below 4.30.

On to `Cc1ccc2ncnc(Nc3cccc(Cl)c3)c2c1`, for which the pIC50 is 7.43.

For orientation: pIC50 means −log10 of the IC50, conventionally taken in molar units. A higher pIC50 goes with a small IC50.

Values taken from the Kinase Knowledgebase extract (Sharma et al. 2016).
